# Data as given in ChEMBL document CHEMBL1155503, “Synthesis of neurotensin(8-13)-phosphopeptide heterodimers via click chemistry” (Bioorg Med Chem Lett, 2010).
# Where a SMILES comes first, the peptide text is derived from it.
# Target: Neurotensin receptor type 1 (Homo sapiens, UniProt P30989)
# Experiment: Displacement of [3H]neurotensin from NTR1 in human HT29 cells after 30 mins by liquid scintillation spectrometry
# Format: cell-based
# Settings: for Activity: HT-29
# Chain of Neurotensin receptor type 1 (P30989 whole entry): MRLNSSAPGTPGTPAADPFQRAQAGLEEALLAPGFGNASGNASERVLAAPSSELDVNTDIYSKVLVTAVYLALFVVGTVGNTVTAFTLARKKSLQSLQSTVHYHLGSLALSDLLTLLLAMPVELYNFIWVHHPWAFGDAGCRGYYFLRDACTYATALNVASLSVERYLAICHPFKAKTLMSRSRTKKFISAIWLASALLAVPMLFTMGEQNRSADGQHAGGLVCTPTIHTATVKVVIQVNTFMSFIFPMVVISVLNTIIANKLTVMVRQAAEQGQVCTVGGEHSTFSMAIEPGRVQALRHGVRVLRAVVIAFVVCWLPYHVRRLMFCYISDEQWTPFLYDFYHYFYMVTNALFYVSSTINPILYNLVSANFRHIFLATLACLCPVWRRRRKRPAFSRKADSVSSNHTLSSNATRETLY
Activity,IC50 [µM],SMILES
Dose-dependent effect,,CSCC[C@H](NC(=O)CCCCn1cc(CCCC(=O)N[C@@H](CCCNC(=N)N)C(=O)N[C@@H](CCCNC(=N)N)C(=O)N2CCC[C@H]2C(=O)N[C@@H](Cc2ccc(O)cc2)C(=O)N[C@@H](CC(C)C)C(=O)N[C@@H](CC(C)C)C(=O)O)nn1)C(=O)N[C@@H](CCC(N)=O)C(=O)N[C@@H](CO)C(=O)N[C@H](C(=O)N1CCC[C@H]1C(=O)N[C@@H](CC(C)C)C(=O)O)[C@@H](C)O
,0.001,CC(C)C[C@H](NC(=O)[C@H](CC(C)C)NC(=O)[C@H](Cc1ccc(O)cc1)NC(=O)[C@@H]1CCCN1C(=O)[C@H](CCCNC(=N)N)NC(=O)[C@@H](N)CCCNC(=N)N)C(=O)O (H-RRPYLL-OH)
,0.7,CSCC[C@H](NC(=O)CCCCn1cc(CCCC(=O)N[C@@H](CCCN=C(N)N)C(=O)N[C@@H](CCCN=C(N)N)C(=O)N2CCC[C@H]2C(=O)N[C@@H](Cc2ccc(O)cc2)C(=O)N[C@@H](CC(C)C)C(=O)N[C@@H](CC(C)C)C(=O)O)nn1)C(=O)N[C@@H](CCC(N)=O)C(=O)N[C@@H](CO)C(=O)N[C@H](C(=O)N1CCC[C@H]1C(=O)N[C@@H](CC(C)C)C(=O)O)[C@@H](C)O
Dose-dependent effect,8.3,CSCC[C@H](NC(=O)CCCCn1cc(CCCC(=O)N[C@@H](CCCNC(=N)N)C(=O)N[C@@H](CCCNC(=N)N)C(=O)N2CCC[C@H]2C(=O)N[C@@H](Cc2ccc(O)cc2)C(=O)N[C@@H](CC(C)C)C(=O)N[C@@H](CC(C)C)C(=O)O)nn1)C(=O)N[C@@H](CCC(N)=O)C(=O)N[C@@H](CO)C(=O)N[C@H](C(=O)N1CCC[C@H]1C(=O)N[C@@H](CC(C)C)C(=O)O)[C@@H](C)OP(=O)(O)O
